Laboratory results: PubChem BioAssay AID2305 (GlaxoSmithKline (GSK), 2010)

Tested on: P. falciparum 3D7 growth, pLDH absorbance
Assay: blood-stage malaria parasite growth potency – strain 3D7, dose response (AID 2305)

Row | SMILES | IC50
1 | CC1CN(Cc2ccc(-c3ccc(-c4nc5ccc(F)cc5[nH]4)cc3)cc2)CC(C)O1 (stereo not drawn) | 0.56 µM
2 | COc1ccc(C(C)Nc2nc(N)c3cc(OC)c(OC)cc3n2)cc1 (stereo not drawn) | 0.94 µM
3 | Oc1ccc(-c2cc(COc3ccccc3C(F)(F)F)c(C3=CCNCC3)cc2COc2ccccc2C(F)(F)F)cc1 | 0.78 µM
4 | O=C(NC1CCN(CC2(c3ccc(Cl)cc3)CCCCC2)CC1)c1ccn[nH]1 | 0.08 µM
5 | COc1ccc(Br)cc1C1Nc2ccc3ccccc3c2C2=C1C(=O)CC(c1ccccc1)C2 (stereo not drawn) | 0.59 µM
6 | COc1cc(Cc2cnc(N)nc2N)c2c(c1OC)OC(C)(C)C=C2 | 1.19 µM
7 | CCN(CC)CCOc1ccc(C(O)(C#CC(O)(c2ccc(OCCN(CC)CC)cc2)c2ccc([N+](=O)[O-])cc2)c2ccc([N+](=O)[O-])cc2)cc1 (stereo not drawn) | 1.73 µM
8 | COc1ccc(CC(Cc2ccc(OC)cc2)NCC(O)c2cccc(Cl)c2)cc1 (stereo not drawn) | 0.16 µM
9 | CC(=NNC(=S)NC(C)(C)C)c1ccccn1 | 0.16 µM
10 | Cc1cc(NC2CCN(CC3CCCCC3)C2)nc(Nc2ccc(Cl)cc2)n1 (stereo not drawn) | 0.4 µM
11 | CC(C)c1ccc2c(c1)C(=O)c1ccc(C(=O)O)cc1S2(=O)=O | 0.47 µM
12 | COc1ccc(S(=O)(=O)NC2CCN(c3cc(C)nc(Nc4cccc(C#N)c4)n3)CC2)cc1 | 0.95 µM
13 | CC1(C)Cc2c(oc3ncn(CCn4cnc5oc6c(c5c4=N)CC(C)(C)SC6)c(=N)c23)CS1 | 0.72 µM
14 | Cn1cncc1C(=O)Nc1cccc(-c2csc(-c3nc4ccccc4[nH]3)c2)c1 | 0.45 µM
15 | COc1ccc(CN(C)C(=O)CCNS(=O)(=O)c2ccc3c(c2)OCCCO3)cc1F | 0.66 µM
16 | O=C(/C=C/c1ccc(Cl)c(Cl)c1)N1CCC(CN2CCC(c3c[nH]c4cnccc34)CC2)CC1 | 0.22 µM
17 | Cc1cc(NN=Cc2ccc(F)cc2)c2cc(F)ccc2n1 | 0.64 µM
18 | CCCC(=O)NC(NC(=S)Nc1ccc([N+](=O)[O-])cc1)C(Cl)(Cl)Cl (stereo not drawn) | 1.03 µM
19 | Cc1cc(N2CCN(C)CC2)nc2ccc(NC(=O)Cc3cccc(C(F)(F)F)c3)cc12 | 0.74 µM
20 | CC(C)(Oc1c(C2CCN(CCCCNC(=O)c3ccc(-c4ccc(Cl)cc4)cc3)CC2)ccc2c1CCCC2)C(N)=O | 1.09 µM
21 | CCN(CCCN1CCCCC1)c1cc(C)nc(Nc2ccc(C(F)(F)F)cc2)n1 | 0.37 µM
22 | CCC(=O)N(c1ccccc1)C1CCN(CCCC(NC(=O)Nc2cc(C(F)(F)F)cc(C(F)(F)F)c2)c2ccc(Cl)c(Cl)c2)CC1 (stereo not drawn) | 0.67 µM
23 | CCCN(CC1CC1)c1ncc(-c2cccc(CNCCC3CCCN3C)c2)cn1 (stereo not drawn) | 0.75 µM
24 | Cc1cc2nc(-c3ccc(C(=O)NCCCc4ccccc4)cc3)[nH]c2cc1C | 1.18 µM
25 | CCc1ccc(NC(=O)N(CCCN2CCN(C)CC2)Cc2csc(-c3ccc(CNCc4ccccc4)cc3)n2)cc1 | 1.01 µM

Row | SMILES | IC50
26 | Oc1ccc(CN2CC[C@@H](N3CCN(CCc4ccccc4)CC3)[C@H](O)C2)cc1Cl | 0.87 µM
27 | Fc1ccc(C=NNc2nc3ccccc3[nH]2)cc1 | 0.78 µM
28 | CO/C(=C\C=C\c1cc2cc(Cl)c(Cl)cc2[nH]1)C(=O)NCCCNC12CC3CC(CC(C3)C1)C2 | 0.73 µM
29 | COc1ccc2nccc(C(=O)NC3CCC(CCN4CCc5cc(C#N)ccc5C4)CC3)c2c1 (stereo not drawn) | 1.16 µM
30 | COc1ccc(F)cc1-c1cccc(CNC2CCN(CC3Cn4c(=O)ccc5ccc(F)c3c54)CC2)c1 (stereo not drawn) | 0.83 µM
31 | CC(C)(C)C/C=C\c1ccc(C(=O)NCC2CC2)cc1 | 0.85 µM
32 | CCCN1CCC2(CC1)NC(C(=O)NCCC(C)C)Cc1c2[nH]c2cc(Cl)ccc12 (stereo not drawn) | 1.38 µM
33 | COc1cc2nc(N3CCN(C(=O)c4ccc(N(C(=O)OC(C)(C)C)C(=O)OC(C)(C)C)cc4)CC3)nc(N)c2cc1OC | 1 µM
34 | COc1ccc(CNC(=O)NC2CCN(c3ccnc(Nc4ccc(F)cc4)n3)CC2)cc1 | 1.05 µM
35 | COc1cc(CCON2C(N)=NC(N)=NC2(C)C)cc(OC)c1OC | 0.05 µM
36 | COc1cccc(-c2cccc(NC(=O)C3CCN(Cc4ccc(O)cc4)CC3)c2)c1 | 1.03 µM
37 | CCOc1ccc(C(=O)Nc2nonc2-c2ccc(OC)c(OC)c2)cc1 | 0.87 µM
38 | Cc1cc(NN=CC=Cc2ccccc2)c2ccc(F)cc2n1 | 0.59 µM
39 | Cn1cncc1C(=O)Nc1cccc(-c2ccc(-c3nc4ccc(F)cc4[nH]3)s2)c1 | 0.87 µM
40 | CCCCCCNc1cc(C)nc2ccc(OC)cc12 | 0.55 µM
41 | CC1(C)N=C(N)N=C(N)N1OCCCNC(=O)c1ccc(C(=O)NCCCON2C(N)=NC(N)=NC2(C)C)cc1 | 0.02 µM
42 | COc1cc(Cc2cnc(N)nc2N)cc(OCCCCC2NC(=O)NC2=O)c1OC (stereo not drawn) | 0.71 µM
43 | c1ccc(CNCc2cccc(-c3ccc(-c4nc5ccccc5[nH]4)cc3)c2)cc1 | 0.82 µM
44 | CC(C)c1ccc(CN2CCC(NC(=O)c3ccc(-c4ccccc4F)s3)CC2)cc1 | 1.55 µM
45 | CC(C)CNCc1cccc(-c2ccccc2CN(C(=O)Nc2ccccc2)C2CCN(Cc3ccccc3)CC2)c1 | 0.64 µM
46 | CN1CCCN(Cc2ccc(-c3cccc(NC(=O)c4ccc(Cl)cc4)c3)cc2)CC1 | 0.61 µM
47 | CN1N=C2c3ccccc3CCC2C1c1ccc(C#N)cc1 (stereo not drawn) | 0.66 µM
48 | O=C(N1CCN(c2cccc(C(F)(F)F)c2)CC1)C(Cl)(Cl)Cl | 0.89 µM
49 | CC(=O)N1N=C(c2[nH]c3ccc(Br)cc3c2C)OC1c1ccccc1 (stereo not drawn) | 0.78 µM
50 | Cc1cccc2[nH]c(-c3ccc(-c4cccc(CNCCCN5CCCC5=O)c4)s3)nc12 | 0.59 µM

Row | SMILES | IC50
51 | CCn1c(Sc2ccc([N+](=O)[O-])c(C#N)c2)nnc1-c1ccc(Cl)cc1 | 1 µM
52 | O=C(NCCCCCN1CCC(c2c[nH]c3ccccc23)CC1)Nc1cccc(Br)c1 | 1.11 µM
53 | CCCN(Cc1nnc(-c2cccs2)o1)C(=O)CSc1nnnn1-c1cc(C)cc(C)c1 | 0.5 µM
54 | CCCNCc1ccc(-c2ccc(CN(Cc3cnc(C)cn3)C(=O)/C=C/c3ccccc3C)cc2)nc1 | 0.92 µM
55 | C=CCn1c(Cc2ccccc2)nnc1Sc1ccc(C#N)c([N+](=O)[O-])c1 | 1.03 µM
56 | COc1cc(NC(=O)CCCCCCCN2CCN(C)CC2)c2ncccc2c1 | 0.61 µM
57 | C[C@@H]1CN(c2cnn(Cc3ccc(NC(=O)Nc4ccc(F)cc4[N+](=O)[O-])cc3)c(=O)c2Cl)C[C@H](C)N1 | 0.81 µM
58 | COc1ccccc1C(=O)N1CCN(Cc2cccs2)CC1 | 0.87 µM
59 | O=C(CN(c1cccc(C(F)(F)F)c1)S(=O)(=O)c1ccc(Cl)cc1)NCCC(c1ccccc1)c1ccccc1 | 0.74 µM
60 | Cc1cc(-c2ccc3c(c2)CCN(CCCOc2ccc4c(c2)CCN4C(=O)/C=C/c2ccccc2Cl)CC3)no1 | 1.23 µM
61 | O=C(Cc1ccc([N+](=O)[O-])cc1)N1CCc2cc3nccc(N4CCN5CCC[C@H]5C4)c3cc21 | 0.84 µM
62 | CC1Cc2ccccc2N1S(=O)(=O)c1cc(OCC(F)(F)F)ccc1OCC(F)(F)F (stereo not drawn) | 0.65 µM
63 | Cc1cc(N[C@@H](CC(C)C)C(=O)NCCOc2ccccc2)nc(NCCc2ccccc2)n1 | 1.51 µM
64 | Cc1cccc2[nH]c(-c3cccc(-c4cccc(NC(=O)CN5CCN(C)CC5)c4)c3)nc12 | 0.53 µM
65 | COc1ccc2nccc([C@@H](O)CN3CCC(NCCc4c[nH]c5ccccc45)CC3)c2c1 | 0.21 µM
66 | COc1ccc(-c2ccc(NC(=O)c3ccc(C#N)cc3)c(F)c2)cc1CN(C)CCN(C)C | 0.97 µM
67 | CN(C)CCN(C)Cc1ccc(-c2cccc(-c3nc4ccccc4[nH]3)c2)cc1 | 0.75 µM
68 | O=C(Nc1cccnc1)c1cn(-c2ccccc2)nc1-c1cccs1 | 0.87 µM
69 | C=CCn1c(Sc2ccc(C#N)c([N+](=O)[O-])c2)nnc1-c1ccc(OC)cc1 | 0.8 µM
70 | COc1ccc(N2CCN(CCCC/C=C/c3ccc(NC(=O)c4cc(Cl)cc(Cl)c4)cc3)CC2)c(OC)c1 | 0.66 µM
71 | CCN(CC)CCN(Cc1ccc(-c2ccc(C(F)(F)F)cc2)cc1)C(=O)Cn1c(CCc2cc(F)cc(F)c2F)nc(=O)c2ccccc21 | 0.76 µM
72 | NC(N)=NN=Cc1cc([N+](=O)[O-])ccc1Sc1ccccc1CO | 1.46 µM
73 | COc1ccc(C=C2SC(=N)N(c3ccccc3OC)C2=O)cc1 | 0.3 µM
74 | O=C(Nc1ccc(OC(F)(F)F)cc1)Nc1ccc([N+](=O)[O-])cc1 | 0.88 µM
75 | COc1ccc2nccc([C@@H](O)CN3CC[C@H](NCc4nc5c(cc4Cl)OCC(=O)N5)[C@H](F)C3)c2c1 | 1.32 µM

Row | SMILES | IC50
76 | O=S(=O)(NCCN1CCCC1)c1ccc(-c2ccccc2CNC2Cc3ccccc3C2)cc1 | 0.85 µM
77 | Cc1ccn2c(C(=O)N3CCN(c4cccc5c4nc(-c4ccoc4)n5Cc4ccccn4)CC3)c(C)nc2c1 | 0.2 µM
78 | Cc1ccccc1C1CCN(C2CCC(NC(=O)/C=C/c3cccc(F)c3)CC2)CC1 (stereo not drawn) | 1.19 µM
79 | CN(C)CCOc1cc(NC(=O)Nc2ccc(-c3ccncc3)c(Cl)c2)ccc1I | 0.14 µM
80 | COc1ccc(-c2nonc2NC(=O)c2cccc(C)c2)cc1OC | 0.81 µM
81 | Cc1cc(C(=O)CN2C(=O)NC3(CCCc4ccccc43)C2=O)c(C)n1Cc1ccco1 (stereo not drawn) | 1.1 µM
82 | COc1ccc(-c2cnc3ccc(NCc4ccc(S(N)(=O)=O)cc4)nn23)cc1 | 0.8 µM
83 | OCCN1CCN(c2ccc(Nc3ccnc4cc5ccccc5cc34)cc2)CC1 | 0.04 µM
84 | Nc1ncc(-c2ccsc2)cc1-c1nc2ccccc2[nH]1 | 0.85 µM
85 | N[C@@H](Cc1cc(I)c(Oc2ccc(O)c(C(=O)O)c2)c(I)c1)C(=O)O | 0.99 µM
86 | CCNc1cc(C(=O)N[C@@H](Cc2ccccc2)[C@H](O)CNC(C)(C)CCCC(C)C)cc(N2CCCC2=O)c1 | 0.83 µM
87 | CS(=O)(=O)Nc1ccc(-c2ccc3ccnc(N)c3c2)cc1 | 0.61 µM
88 | COc1ccc2nccc([C@@H](O)CN3CCC(NCc4cc5cc(Cl)ccc5[nH]4)CC3)c2c1 | 0.13 µM
89 | Cc1cc(Cl)ccc1N(Cc1ccccc1)c1ccnc(Cl)n1 | 0.86 µM
90 | CC(C)CCNCc1ccc(OCc2cccc(C(=O)Nc3ccccc3)c2)c(I)c1 | 0.29 µM
91 | CCC1CCCCN1S(=O)(=O)c1ccc(NC(=O)c2cc(C)on2)cc1 (stereo not drawn) | 1.24 µM
92 | O=C(NCCN1CCC(NC(=O)c2ccc(-c3ccccn3)s2)CC1)c1ccc(Cl)c(Cl)c1 | 0.88 µM
93 | Cc1cc2ccc(CNCCc3ccccc3Br)cc2nc1N | 0.51 µM
94 | COc1cc2c(cc1OC)C(C(=O)Nc1cc(OC)c(OC)c(OC)c1)C(c1ccc(SC)cc1)N(C)C2=O (stereo not drawn) | 0.99 µM
95 | ON=C1c2cc(OCCN3CCCCC3)c(Cl)cc2-c2cc(Cl)c(OCCN3CCCCC3)cc21 | 0.7 µM
96 | O=C(Nc1ccc(N2CCN(Cc3c[nH]c4cc(F)ccc34)CC2)cc1)c1ccccc1-c1ccc(C(F)(F)F)cc1 | 0.99 µM
97 | COc1cc(NC(=O)/C=C/c2cc(F)cc(F)c2F)cc(OCCN2CCC(O)(c3ccccc3)CC2)c1 | 0.17 µM
98 | CN1CCCN(Cc2ccc(-c3cccc(NC(=O)c4cccc(F)c4)c3)cc2)CC1 | 0.98 µM
